Results on 11 compounds are retold here after patent publication US20240124454A1, “TRICYCLIC COMPOUND AND USE THEREOF” (NANJING ZAIMING PHARMACEUTICAL CO., LTD., priority 2020, published 2024).

Where only a bound is given, the exact number is not on record here.

The target of the series is hERG potassium channel (Homo sapiens (Human), UniProt Q12809). In words: hERG inhibitory activity, manual patch-clamp in HEK293 cells. Format: cell-based. Conditions: HEK293 stably expressing hERG. The method, then: Test Example 8. Assay for hERG Inhibitory Activity of Compound of Present Application
hERG potassium channel, sequence (Q12809 whole entry): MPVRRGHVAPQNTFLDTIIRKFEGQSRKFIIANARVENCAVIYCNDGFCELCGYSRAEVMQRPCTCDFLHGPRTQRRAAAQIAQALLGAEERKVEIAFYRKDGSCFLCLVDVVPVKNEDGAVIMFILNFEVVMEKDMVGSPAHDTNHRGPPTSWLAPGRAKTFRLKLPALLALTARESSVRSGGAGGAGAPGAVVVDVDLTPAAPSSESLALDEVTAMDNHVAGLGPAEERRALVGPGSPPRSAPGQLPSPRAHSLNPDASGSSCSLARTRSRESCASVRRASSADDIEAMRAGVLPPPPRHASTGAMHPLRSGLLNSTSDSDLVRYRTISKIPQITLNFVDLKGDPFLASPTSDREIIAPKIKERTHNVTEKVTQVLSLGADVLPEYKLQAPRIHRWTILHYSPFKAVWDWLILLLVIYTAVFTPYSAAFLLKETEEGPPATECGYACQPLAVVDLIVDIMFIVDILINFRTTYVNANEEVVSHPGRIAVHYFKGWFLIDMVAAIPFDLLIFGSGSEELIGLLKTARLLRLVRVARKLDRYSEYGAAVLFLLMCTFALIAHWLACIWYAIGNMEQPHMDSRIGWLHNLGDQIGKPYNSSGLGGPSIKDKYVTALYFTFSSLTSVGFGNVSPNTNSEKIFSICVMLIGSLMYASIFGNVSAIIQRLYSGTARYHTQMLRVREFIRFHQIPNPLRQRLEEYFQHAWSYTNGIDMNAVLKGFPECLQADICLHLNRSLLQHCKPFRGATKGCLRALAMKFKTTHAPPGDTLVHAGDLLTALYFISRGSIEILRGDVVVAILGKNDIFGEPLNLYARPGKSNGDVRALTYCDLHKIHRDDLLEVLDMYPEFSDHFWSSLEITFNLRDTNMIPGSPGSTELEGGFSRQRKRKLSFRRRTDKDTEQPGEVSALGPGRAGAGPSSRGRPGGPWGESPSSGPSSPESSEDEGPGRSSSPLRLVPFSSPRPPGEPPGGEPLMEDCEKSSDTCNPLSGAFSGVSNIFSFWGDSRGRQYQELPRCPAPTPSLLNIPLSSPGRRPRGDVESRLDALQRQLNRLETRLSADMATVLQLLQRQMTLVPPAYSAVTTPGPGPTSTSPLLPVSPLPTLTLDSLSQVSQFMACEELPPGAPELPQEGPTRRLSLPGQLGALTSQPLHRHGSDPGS
The inhibition of hERG activity by the compounds of the present application was determined using the following method.
I. Experimental materials and instruments • 1. Dialyzed fetal bovine serum Shanghai Bohan Biotechnology Co., Ltd (BS-0005-500) • 2. DMEM culture medium Thermo Fisher Scientific (China) Co., Ltd. (10569) • 3. HEPES Thermo Fisher Scientific (China) Co., Ltd. (15630080) • 4. Trypsin Thermo Fisher Scientific (China) Co., Ltd. (2192509) • 5. Penicillin-streptomycin solution Thermo Fisher Scientific (China) Co., Ltd. (15140-122) • 6. MEM non-essential amino acid solution Thermo Fisher Scientific (China) Co., Ltd. (11140) • 7. Geneticin (G418) Thermo Fisher Scientific (China) Co., Ltd. (11811031) • 8. Blasticidin Thermo Fisher Scientific (China) Co., Ltd. (R21001) • 9. PolylysineThermo Fisher Scientific (China) Co., Ltd. (P4832) • 10. Dofetilide Beijing Express Technology Co., Ltd. (D525700) • 11. Doxycycline Sigma-Aldrich (Shanghai) Trading Co., Ltd. (D9891) • 12. Carbon dioxide incubator Thermo Fisher Scientific (China) Co., Ltd. (371) • 13. Puller Sutter Company, U.S. (P-97) • 14. Micromanipulator Siskiyou Company, U.S. (MC1000e) • 15. Micromanipulator Sutter Company, U.S. (ROE-200; MP285) • 16. Amplifier HEKA Company, Germany (EPC10) • 17. Microscope Olympus (China) Co., Ltd. (IX51/71/73) • 18. Perfusion system ALA Company, U.S. (VM8 gravity administration system)
II. Culture of cell lines and cells
HEK293 cells (Cat. No: K1236) stably expressing hERG ion channel were purchased from Invitrogen. The cells were cultured in a culture medium containing 85% DMEM, 10% dialyzed fetal bovine serum, 0.1 mM non-essential amino acid solution, 100 U/mL penicillin-streptomycin solution, 25 mM HEPES, 5 μg/mL blasticidin, and 400 μg/mL geneticin. When the cell density increased to 40-80% of the bottom area of the culture dish, the cells were digested with trypsin and subcultured thrice every week. Before the experiment, the cells were cultured at a density of 5×10^5 in 6-cm culture dishes, induced for 48 h with 1 μg/mL doxycycline, and then digested and inoculated on a slide for the subsequent manual patch-clamp experiment.
III. Preparation of solutions
1) Extracellular fluid: 132 mM sodium chloride, 4 mM potassium chloride, 3 mM calcium chloride, 0.5 mM magnesium chloride, 11.1 mM glucose, and 10 mM HEPES (adjusted to pH 7.35 with sodium hydroxide).
2) Intracellular fluid: 140 mM potassium chloride, 2 mM magnesium chloride, 10 mM EGTA, 5 mM ATP-magnesium salt, and 10 mM HEPES (adjusted to pH 7.35 with potassium hydroxide).
Note: the osmotic pressure of the solutions was controlled at 280-300 mOsmol/kg. The solutions were filtered and stored at 4° C. before use. The ATP-magnesium salt was prepared into a 100 mM stock solution, subpackaged, and stored in a −20° C. refrigerator. On the day of the experiment, a certain amount of the stock solution was added into the intracellular fluid right before use.
1) The slides carrying HEK293 cells in the culture dish were placed in the perfusion chamber of the micromanipulation stage.
2) Appropriate cells were placed in the center of the field of view under an Olympus IX51, IX71, or IX73 inverted microscope. The tip of the glass electrode was found using a 10× objective lens and placed in the center of the field of view. The electrode was then moved down using a micromanipulator while the electrode was slowly brought into proximity to the cell using the coarse adjustment.
3) When the electrode was in close proximity to the cell, the lens was switched to a 40× objective lens for observation. The micromanipulator was used for fine adjustment to make the electrode approach the surface of the cell gradually.
4) Negative pressure was applied to form a seal with a resistance higher than 1 GΩ between the electrode tip and the cell membrane. […]
In general terms: Block of hERG is tested as a sign of cardiac risk.
Take `Cc1ncccc1-n1c(=O)c2ncn(C)c2c2ccc(C(F)(F)F)nc21` (atropisomer, axis not shown) [Compound 20, 1-methyl-5-(2-methylpyridin-3-yl)-7-(trifluoromethyl)-1,5-dihydro-4H-imidazo[4,5-c][1,8]naphthyridin-4-one]: the IC50 (as a rule, the concentration at which inhibition is half-maximal) is > 30 nM.

Regarding `Cn1cnc2c(=O)n(-c3cccc(F)c3Cl)c3nc(C(F)(F)F)ccc3c21` (atropisomer, axis not shown) [Compound 25, 5-(2-chloro-3-fluorophenyl)-1-methyl-7-(trifluoromethyl)-1,5-dihydro-4H-imidazo[4,5-c][1,8]naphthyridin-4-one], the concentration for half-maximal inhibition (IC50) was > 30 nM.

With `Cn1cnc2c(=O)n(-c3cccc(F)c3Cl)c3nc(C(F)(F)F)ccc3c21` (single isomer, unassigned) [Compound 25-P2, 5-(2-chloro-3-fluorophenyl)-1-methyl-7-(trifluoromethyl)-1,5-dihydro-4H-imidazo[4,5-c][1,8]naphthyridin-4-one], the IC50 was > 30 nM.

Consider `Cn1cnc2c(=O)n(-c3cccnc3C(F)(F)F)c3nc(C(F)(F)F)ccc3c21` (single isomer, unassigned) [Compound 41-P2, 1-methyl-7-(trifluoromethyl)-5-(2-(trifluoromethyl)pyridin-3-yl)-1,5-dihydro-4H-imidazo[4,5-c][1,8]naphthyridin-4-one], for which the IC50 is > 30 nM.

With `Cn1cnc2c(=O)n(-c3cccnc3C3CC3)c3nc(C(F)(F)F)ccc3c21` (single isomer, unassigned) [Compound 42-P2, 5-(2-cyclopropylpyridin-3-yl)-1-methyl-7-(trifluoromethyl)-1,5-dihydro-4H-imidazo[4,5-c][1,8]naphthyridin-4-one], the IC50 was > 30 nM.

On to `Cn1cnc2c(=O)n(-c3cccnc3C3CC3)c3cc(C(F)(F)F)ccc3c21` (single isomer, unassigned) [Compound 48-P2, 5-(2-cyclopropylpyridin-3-yl)-1-methyl-7-(trifluoromethyl)-1,5-dihydro-4H-imidazo[4,5-c]quinolin-4-one], for which the IC50 was > 30 nM.

Regarding `Cn1cnc2c(=O)n(-c3cccnc3C3CC3)c3cc(Cl)ccc3c21` (single isomer, unassigned) [Compound 49-P2, 7-chloro-5-(2-cyclopropylpyridin-3-yl)-1-methyl-1,5-dihydro-4H-imidazo[4,5-c]quinolin-4-one], the IC50 was > 30 nM.

`O=c1c2ncoc2c2ccc(C(F)(F)F)nc2n1-c1cccnc1C1CC1` (single isomer, unassigned) [Compound 81-P2, 5-(2-cyclopropylpyridin-3-yl)-7-(trifluoromethyl)oxazolo[4,5-c][1,8]naphthyridin-4(5H)-one]: the IC50 was > 30 nM.

As to `Cn1cnc2c(=O)n(-c3cccc(F)c3Cl)c3cc(Cl)ccc3c21` [Compound 39, 7-chloro-5-(2-chloro-3-fluorophenyl)-1-methyl-1,5-dihydro-4H-imidazo[4,5-c]quinolin-4-one], the IC50 is > 30 nM.

`Cc1ncccc1-n1c(=O)c2ncoc2c2ccc(C(F)(F)F)nc21` [Compound 40, 5-(2-methylpyridin-3-yl)-7-(trifluoromethyl)oxazolo[4,5-c][1,8]naphthyridin-4(5H)-one]: the IC50 was > 30 nM.

Consider `Cc1ncccc1-n1c(=O)c2ncn(C)c2c2ccc(C(F)(F)F)cc21` [Compound 45, 1-methyl-5-(2-methylpyridin-3-yl)-7-(trifluoromethyl)-1,5-dihydro-4H-imidazo[4,5-c]quinolin-4-one], for which the IC50 is > 30 nM.
